Experimental findings from patent US9365541B2, “Compounds for use in the treatment of parasitic diseases” (IRBM—SCIENCE PARK S.P.A., priority 2012, dated 2016) are described below.

The term EC50 denotes the concentration needed to bring the measured effect to its halfway point. A lower EC50 goes with higher potency in that assay. Usually IC50 stands for the midpoint of a concentration-inhibition curve.

Molecules are shown by their SMILES.

Experiment [1] has as its system Plasmodium falciparum 3D7. Nature of the experiment: P. falciparum growth inhibition assay (Pf-LDH). The class given is cell-based. Particulars: Plasmodium falciparum, Erythrocyte; P. falciparum 3D7 infected erythrocytes, 72 h incubation, PfLDH readout. The method, boiled down: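 P. falciparum 3D7 (chloroquine-sensitive) at 0.25% parasitemia and 2% hematocrit was incubated with compound for 72 h at 37° C under 4% CO2/3% O2/93% N2. After freeze-thaw, PfLDH activity was read at 650 nm with lactate/APAD/NBT/diaphorase mix (pH 8.0).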

For experiment [2], the target named is T1, human HDAC1 (Homo sapiens, UniProt Q13547).
T1 construct: made in house; host or cells: HeLa (ATCC CCL-2), mammalian cells
Nature of the experiment: Homo sapiens HDAC1 inhibition assay (Fluor-de-Lys, enzymatic). In kind it is biochemical. Particulars: human HDAC enzymatic assay; read-out: hHDAC IC50. The method, boiled down:
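Product developed with trypsin developer containing 2 μM TSA to stop the reaction; fluorescence measures deacetylase activity, inversely related to inhibition.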

T1 sequence (Q13547 whole entry): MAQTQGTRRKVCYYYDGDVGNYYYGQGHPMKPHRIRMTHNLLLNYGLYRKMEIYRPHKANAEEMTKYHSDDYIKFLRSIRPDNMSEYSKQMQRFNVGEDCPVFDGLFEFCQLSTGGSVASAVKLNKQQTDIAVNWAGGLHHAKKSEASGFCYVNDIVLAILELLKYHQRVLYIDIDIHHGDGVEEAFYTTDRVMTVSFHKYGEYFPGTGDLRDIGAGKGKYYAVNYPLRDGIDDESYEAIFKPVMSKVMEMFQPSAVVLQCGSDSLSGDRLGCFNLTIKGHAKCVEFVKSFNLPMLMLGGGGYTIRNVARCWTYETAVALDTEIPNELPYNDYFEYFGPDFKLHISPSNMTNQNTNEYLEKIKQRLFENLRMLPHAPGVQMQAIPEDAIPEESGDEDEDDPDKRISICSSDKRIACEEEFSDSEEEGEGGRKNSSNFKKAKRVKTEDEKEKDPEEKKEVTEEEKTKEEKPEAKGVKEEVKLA

`CNC(=O)CCCCC[C@H](NC(=O)C1(C)CCCO1)c1ncc(-c2ccc(-c3ccn(C)n3)cc2)[nH]1` (stereo partly drawn) [Entry 123, 2-methyl-N-((S)-1-(5-(4-(1-methyl-1H-pyrazol-3-yl)phenyl)-1H-imidazol-2-yl)-7-(methylamino)-7-oxoheptyl)tetra-hydrofuran-2-carboxamide] displayed an EC50 in experiment [1] of more than 5000 nM. Further, the IC50 in experiment [2] is more than 5 µM.

As to `CNC(=O)CCCCC[C@H](NC(=O)c1cnc(CN2CCCC2)s1)c1ncc(-c2ccc(-c3ccn(C)n3)cc2)[nH]1` [Entry 124, (S)-N-(1-(5-(4-(1-methyl-1H-pyrazol-3-yl)phenyl)-1H-imidazol-2-yl)-7-(methylamino)-7-oxoheptyl)-2-(pyrrolidin-1-ylmethyl)thiazole-5-carboxamide], in experiment [1], the EC50 is less than 1000 nM. Moreover, the IC50 in experiment [2] lay within 1 to 5 µM.

As for `CNC(=O)CCCCC[C@H](NC(=O)c1cncs1)c1ncc(-c2ccn3ncnc3c2)[nH]1` [Entry 125, (S)-N-(1-(5-([1,2,4]triazolo[1,5-a]pyridin-7-yl)-1H-imidazol-2-yl)-7-(methylamino)-7-oxoheptyl)thiazole-5-carboxamide], in experiment [1], the EC50 was more than 5000 nM. In experiment [2], the IC50 is more than 5 µM.

`CNC(=O)CCCCC[C@H](NC(=O)c1cncs1)c1ncc(-c2ccc3ncccc3c2)[nH]1` [Entry 127, (S)-N-(7-(methylamino)-7-oxo-1-(5-(quinolin-6-yl)-1H-imidazol-2-yl)heptyl)thiazole-5-carboxamide] displayed an EC50 in experiment [1] of less than 1000 nM. In addition, in experiment [2], the IC50 lay in the range of 1 to 5 µM.

`CNC(=O)CCCCC[C@H](NC(=O)c1cncs1)c1ncc(-c2ccc3ccccc3n2)[nH]1` [Entry 128, (S)-N-(7-(methylamino)-7-oxo-1-(5-(quinolin-2-yl)-1H-imidazol-2-yl)heptyl)thiazole-5-carboxamide] came in with a concentration giving a half-maximal response (EC50) in experiment [1] of 1000 to 5000 nM. For the same compound, the IC50 in experiment [2] is more than 5 µM.

Compound `CNC(=O)CCCCC[C@H](NC(=O)c1cncs1)c1ncc(-c2ccc(Cl)c(Cl)c2)[nH]1` [Entry 129, (S)-N-(1-(5-(3,4-dichlorophenyl)-1H-imidazol-2-yl)-7-(methylamino)-7-oxoheptyl)thiazole-5-carboxamide] had an EC50 in experiment [1] of more than 5000 nM. Moreover, in experiment [2], the IC50 is more than 5 µM.

As to `CNC(=O)CCCCC[C@H](NC(=O)CCN1CCOCC1)c1ncc(-c2cc3ccccc3nc2OC)[nH]1` [Entry 130], the EC50 in experiment [1] lay in the range of 1000 to 5000 nM. Moreover, in experiment [2], the IC50 was more than 5 µM.

`CNC(=O)CCCCC[C@H](NC(=O)CCN1CCN(C)CC1)c1ncc(-c2cc3ccccc3nc2OC)[nH]1` [Entry 131] gave an EC50 in experiment [1] of 1000 to 5000 nM. Besides, the IC50 in experiment [2] was less than 1 µM.

For `CNC(=O)CCCCC[C@H](NC(=O)c1cncs1)c1ncc(-c2ccc3c(ccn3C)c2)[nH]1` [Entry 132, (S)-N-(1-(5-(1-methyl-1H-indol-5-yl)-1H-imidazol-2-yl)-7-(methylamino)-7-oxoheptyl)thiazole-5-carboxamide], in experiment [1], the EC50 was less than 1000 nM. The 50% inhibitory concentration (IC50) in experiment [2] is less than 1 µM.

In experiment [1], `CNC(=O)CCCCC[C@H](NC(=O)C1(C)CCOCC1)c1ncc(-c2cc3ccccc3nc2OC)[nH]1` [Entry 133, (S)-N-(1-(5-(2-methoxyquinolin-3-yl)-1H-imidazol-2-yl)-7-(methylamino)-7-oxoheptyl)-4-methyltetrahydro-2H-pyran-4-carboxamide] registered an EC50 of 1000 to 5000 nM. Also, the IC50 in experiment [2] fell in the range of 1 to 5 µM.

Regarding `CNC(=O)CCCCC[C@H](NC(=O)CCc1cnn(C)c1)c1ncc(-c2cc3ccccc3nc2OC)[nH]1` [Entry 134], in experiment [1], the EC50 lay in the range of 1000 to 5000 nM. Further, the half-maximal inhibitory concentration (IC50) in experiment [2] was more than 5 µM.

In turn, `CNC(=O)CCCCC[C@H](NC(=O)c1ccn(C)n1)c1ncc(-c2cc3ccccc3nc2OC)[nH]1` [Entry 135, (S)-N-(1-(5-(2-methoxyquinolin-3-yl)-1H-imidazol-2-yl)-7-(methylamino)-7-oxoheptyl)-1-methyl-1H-pyrazole-3-carboxamide] yielded an EC50 in experiment [1] of 1000 to 5000 nM. For the same compound, the IC50 in experiment [2] is more than 5 µM.

On to `CNC(=O)CCCCC[C@H](NC(=O)c1cncs1)c1ncc(-c2ccc3occc3c2)[nH]1` [Entry 136, (S)-N-(1-(5-(benzofuran-5-yl)-1H-imidazol-2-yl)-7-(methylamino)-7-oxoheptyl)thiazole-5-carboxamide], for which the EC50 in experiment [1] was more than 5000 nM. For the same compound, in experiment [2], the IC50 was more than 5 µM.

Take `CNC(=O)CCCCC[C@H](NC(=O)c1cncs1)c1ncc(-c2ccc3ccccc3c2F)[nH]1` [Entry 137, (S)-N-(1-(5-(1-fluoronaphthalen-2-yl)-1H-imidazol-2-yl)-7-(methylamino)-7-oxoheptyl)thiazole-5-carboxamide]: the EC50 in experiment [1] was more than 5000 nM. Moreover, the IC50 in experiment [2] is more than 5 µM.

Take `CNC(=O)CCCCC[C@H](NC(=O)c1cncs1)c1ncc(-c2ccc3cnccc3c2)[nH]1` [Entry 138, (S)-N-(1-(5-(isoquinolin-6-yl)-1H-imidazol-2-yl)-7-(methylamino)-7-oxoheptyl)thiazole-5-carboxamide]: the EC50 in experiment [1] was less than 1000 nM. Further, the IC50 in experiment [2] was 1 to 5 µM.

Take `CNC(=O)CCCCC[C@H](NC(=O)c1cncs1)c1ncc(-c2ccc(-c3ccccn3)cc2)[nH]1` [Entry 139, (S)-N-(7-(methylamino)-7-oxo-1-(5-(4-(pyridin-2-yl)phenyl)-1H-imidazol-2-yl)heptyl)thiazole-5-carboxamide]: the EC50 in experiment [1] fell in the range of 1000 to 5000 nM. Besides, in experiment [2], the IC50 fell in the range of 1 to 5 µM.

For `CNC(=O)CCCCC[C@H](NC(=O)c1cncs1)c1ncc(-c2cc3ccccc3n(C)c2=O)[nH]1` [Entry 140, (S)-N-(1-(5-(1-methyl-2-oxo-1,2-dihydroquinolin-3-yl)-1H-imidazol-2-yl)-7-(methylamino)-7-oxoheptyl)thiazole-5-carboxamide], the EC50 in experiment [1] lay in the range of 1000 to 5000 nM. For the same compound, the IC50 in experiment [2] was in the range of 1 to 5 µM.

On to `CNC(=O)CCCCC[C@H](NC(=O)c1cnc(CN2CCCC2)s1)c1ncc(-c2ccc(-n3cccn3)cc2)[nH]1` [Entry 141, (S)-N-(1-(5-(4-(1H-pyrazol-1-yl)phenyl)-1H-imidazol-2-yl)-7-(methylamino)-7-oxoheptyl)-2-(pyrrolidin-1-ylmethyl)thiazole-5-carboxamide], for which the EC50 in experiment [1] was 1000 to 5000 nM. In addition, in experiment [2], the half-inhibitory concentration (IC50) lay within 1 to 5 µM.

Turning to `CNC(=O)CCCCC[C@H](NC(=O)CCc1nc2ccccc2s1)c1ncc(-c2ccc(-n3cccn3)cc2)[nH]1` [Entry 142, (S)-7-(5-(4-(1H-pyrazol-1-yl)phenyl)-1H-imidazol-2-yl)-7-(3-(benzo[d]thiazol-2-yl)propanamido)-N-methylheptanamide], the EC50 in experiment [1] fell in the range of 1000 to 5000 nM. In experiment [2], the IC50 is 1 to 5 µM.

For the compound `CNC(=O)CCCCC[C@H](NC(=O)c1cncs1)c1ncc(-c2ccc3ccncc3c2)[nH]1` [Entry 143, (S)-N-(1-(5-(isoquinolin-7-yl)-1H-imidazol-2-yl)-7-(methylamino)-7-oxoheptyl)thiazole-5-carboxamide], the EC50 in experiment [1] was less than 1000 nM. In addition, the IC50 in experiment [2] was less than 1 µM.

`CNC(=O)CCCCC[C@H](NC(=O)c1cn2ccccc2n1)c1ncc(-c2ccc3ccccc3c2)[nH]1` [Entry 144, (S)-N-(7-(methylamino)-1-(5-(naphthalen-2-yl)-1H-imidazol-2-yl)-7-oxo-heptyl)imidazo[1,2-a]pyridine-2-carboxamide]: the EC50 in experiment [1] was more than 5000 nM. Further, the IC50 in experiment [2] was more than 5 µM.

In the case of `CNC(=O)CCCCC[C@H](NC(=O)C1CCC1(F)F)c1ncc(-c2ccc3ccncc3c2)[nH]1` (stereo partly drawn) [Entry 145, 2,2-difluoro-N-((S)-1-(5-(isoquinolin-7-yl)-1H-imidazol-2-yl)-7-(methylamino)-7-oxo-heptyl)cyclobutane-carboxamide], in experiment [1], the EC50 is 1000 to 5000 nM. Moreover, in experiment [2], the IC50 fell in the range of 1 to 5 µM.

In turn, `CNC(=O)CCCCC[C@H](NC(=O)Cc1csc2nccn12)c1ncc(-c2ccc(-c3ccn(C)n3)cc2)[nH]1` [Entry 146, (S)-7-(2-(imidazo[2,1-b]thiazol-3-yl)acetamido)-N-methyl-7-(5-(4-(1-methyl-1H-pyrazol-3-yl)phenyl)-1H-imidazol-2-yl)heptanamide] displayed an EC50 in experiment [1] of 1000 to 5000 nM. In addition, the IC50 in experiment [2] lay within 1 to 5 µM.

In turn, `CNC(=O)CCCCC[C@H](NC(=O)c1cncs1)c1ncc(-c2cccc3ccoc23)[nH]1` [Entry 147, (S)-N-(1-(5-(benzofuran-7-yl)-1H-imidazol-2-yl)-7-(methylamino)-7-oxoheptyl)thiazole-5-carboxamide] yielded an EC50 in experiment [1] of 1000 to 5000 nM. Also, the IC50 in experiment [2] lay within 1 to 5 µM.

In experiment [1], `CNC(=O)CCCCC[C@H](NC(=O)Cc1c(C)[nH]c2ccc(OC)cc12)c1nnc(-c2ccc3ccccc3c2)[nH]1` [Entry 148, (S)-7-(2-(5-methoxy-2-methyl-1H-indol-3-yl)acetamido)-N-methyl-7-(5-(naphthalen-2-yl)-4H-1,2,4-triazol-3-yl)heptanamide] returned an EC50 of less than 1000 nM. The IC50 in experiment [2] is less than 1 µM.

`CCc1nc2ccccc2n1CCC(=O)N[C@@H](CCCCCC(=O)NC)c1ncc(-c2ccc3ccccc3c2)[nH]1` [Entry 150, (S)-7-(3-(2-ethyl-1H-benzo[d]imidazol-1-yl)propanamido)-N-methyl-7-(5-(naphthalen-2-yl)-1H-imidazol-2-yl)heptanamide] displayed an EC50 in experiment [1] of less than 1000 nM. The IC50 in experiment [2] is less than 1 µM.

Regarding `CNC(=O)CCCCC[C@H](NC(=O)Cn1c(=O)ncc2ccccc21)c1ncc(-c2ccc3ccccc3c2)[nH]1` [Entry 151], the EC50 in experiment [1] was in the range of 1000 to 5000 nM. For the same compound, the IC50 in experiment [2] is less than 1 µM.

`CNC(=O)CCCCC[C@H](NC(=O)C12CCN(CC1)CC2)c1ncc(-c2ccc3ncccc3c2)[nH]1` [Entry 152] returned an EC50 in experiment [1] of 1000 to 5000 nM. The IC50 in experiment [2] is less than 1 µM.

In experiment [1], `CNC(=O)CCCCC[C@H](NC(=O)C12CCN(CC1)CC2)c1ncc(-c2ccc3cc(OC)ccc3c2)[nH]1` [Entry 153, (S)-N-(1-(5-(6-methoxynaphthalen-2-yl)-1H-imidazol-2-yl)-7-(methylamino)-7-oxo-heptyl)quinuclidine-4-carboxamide] showed an EC50 of less than 1000 nM. In addition, the IC50 in experiment [2] was less than 1 µM.
